This is an account of results in publication PMC8476831, “Pharmacological Characterization of Toludesvenlafaxine as a Triple Reuptake Inhibitor” (Frontiers in Pharmacology, 2021).

One data set has as its system CUMS rats. Nature of the data set: Chronic unpredictable mild stress (CUMS) model: open field test and sucrose consumption. To be noted: 7.3 mg/kg oral once daily 21 days.
The subject of data set [1] is olfactory bulbectomized rats. Briefly: Olfactory bulbectomized model: open field test, sucrose consumption, serum corticosterone and testosterone.
Protocol: Thereafter, all rats received daily intragastric dosing for 20 days. The open field test on the 7th and 14th days of dosing, sucrose consumption on the 18th day of dosing, and serum levels of corticosterone and testosterone on the 20th day of dosing were determined.
(§1) Locomotor activity was measured in custom-made acrylic boxes (Height✕Width✕Length: 40✕52✕52 cm). The boxes were placed underneath cameras and all sessions (the duration of the sessions was 5 min) were recorded and data were later quantified by experimenters blinded to treatments. The bottom surface of the boxes was divided into 16 equal squares. Two parameters were quantified from the sessions: the number of squares each rat crossed with both front paws and the number of rearing episodes. Standing with two front paws off the ground was considered one episode of rearing.
(§2) Rats were exposed to 1% sucrose solution in leak-proof bottles for 1 h per day for 3 consecutive days. […] The weight difference of the bottles before and after the 2-h test was considered the total amount of sucrose consumed by the rats.
The serum corticosterone and testosterone levels were measured following the kit instructions.
The nature of data set [2]: Blood, brain and hypothalamus distribution after single intragastric dose. To be noted: rats, toludesvenlafaxine 8 mg/kg intragastric. The class given is in vivo, Wistar rats.
Protocol: Total brain and hypothalamus distribution study was conducted in Wistar rats (4/sex/group) following a single intragastric dose at 8 mg/kg. […] All tissues were immediately rinsed with 200 μg/ml dichlorovos (as esterase inhibitor) ice-cold saline after collection and then were stored at −80°C until analysis using LC-MS/MS.
The subject of another data set is striatum. The arrangement: method as in Zhang et al., 2014. The note with it: ref Zhang et al., 2014; cited from earlier work.
Where [3] appears, read: 7.3 mg/kg daily, 20th day of dosing.
Where [4] appears, read: both sexes, Wistar, rat, blood, oral, read-out: Blood concentration.
[5] abbreviates: both sexes, Wistar, rat, brain, oral, read-out: Brain concentration.
[6] abbreviates: both sexes, Wistar, rat, hypothalamus, oral, read-out: Hypothalamus concentration.

Each structure is given as a SMILES string. Where two headings read alike, the source gives them in different places. Marks after values point to notes of the source that are not given here.

Description for CUMS rats: Briefly, SD rats were randomly exposed to various stressors for 3 weeks. […] No stressor was repeated within 2 days for each rat. The control group was housed in a separate room, with free access to food and water, and not disturbed.
Rats received oral administration of study drugs once daily for 21 consecutive days during the chronic stress exposure period. At the end of the chronic stress and drug treatment period, the open field test (21st day) and amount of sucrose consumption (22nd day) were determined.
as §1, §2

Take `CN(C)CC(c1ccc(O)cc1)C1(O)CCCCC1` (stereo not drawn) [DVS, desvenlafaxine succinate monohydrate]: in the data set on CUMS rats (day 22), the Sugar consumption rate was 82.1 ± 7.4^d %. In addition, in the data set with CUMS rats (open field day 21), the “Numbers of squares crossed” value is listed as 47.0 ± 12.1^e and the Rearing time is on record as 15.2 ± 3.9^d seconds. In data set [1] (7.3 mg/kg daily intragastric), the “Moving distance (squares crossed) Day 7” value amounted to 26.8 ± 7.6 squares crossed, the “Moving distance (squares crossed) Day 14” value was 26.7 ± 10.1 squares crossed, the “Rearing time Day 7” value is listed as 7.0 ± 3.1^d seconds and the “Rearing time Day 14” value is given as 9.4 ± 3.1^d seconds. In data set [1] (7.3 mg/kg daily, 18th day of dosing), this molecule returned a Sugar consumption rate of 58.1 ± 26.6%. Besides, in data set [1] (setting [3]), the “Corticosterone (serum)” value came to 394.1 ± 231.6 ng/L and the “Testosterone (serum)” value stood at 2.4 ± 1.8 ng/mL.
`CN(C)CC(c1ccc(O)cc1)C1(O)CCCCC1` (stereo not drawn) [ODV, O-desmethylvenlafaxine] registered a concentration at 20 min in data set [2] (both sexes, Wistar, rat, blood, oral, 15 min row (footnote: detected at 20 min)) of 90.9 ± 33.5 ng/mL. Also, the concentration at 1 h stood at 68.2 ± 23.6 ng/mL in data set [2] (setting [4]), 20.9 ± 6.8 ng/g in data set [2] (setting [5]) and 97.9 ± 58 ng/g in data set [2] (setting [6]). Moreover, the values for the concentration at 12 h in data set [2] (setting [4]), in data set [2] (setting [5]) and in data set [2] (setting [6]) were 2.84 ± 2.69 ng/mL, 2.06 ± 1.29 ng/g and 7.22 ± 6.79 ng/g, respectively. Also, the concentration at 15 min is 13.8 ± 8.4 ng/g in data set [2] (both sexes, Wistar, rat, brain, oral, 15 min, read-out: Brain concentration) and 92.5 ng/g in data set [2] (both sexes, Wistar, rat, hypothalamus, oral, 15 min, read-out: Hypothalamus concentration). The same molecule yielded a Hypothalamus concentration in data set [2] (15 min) of 92.52 ± 68.23 ng/g. The “striatal DA level” value in the data set on striatum is given as “does not increase”.
